According to patent US7524840B2, “7,8-disubstituted pyrazolobenzodiazepines” (Hoffmann-La Roche Inc., priority 2004, dated 2009):
pIC50: −log10 of the molar value.

What was measured:
[1] = biological target: T1, KDR (Homo sapiens, UniProt P35968); assay: KDR kinase HTRF assay; assay type: biochemical
T1 construct: EEE tag
Procedure: To determine inhibition of KDR and FGFR, kinase assays were conducted using an HTRF (Homogeneous Time Resolved Fluorescence) assay. This assay is described in A. J. Kolb et. al., Drug Discovery Today, 1998, 3(7), p 333.
Prior to kinase reaction, recombinant EEE-tagged KDR was activated in the presence of activation buffer (50 mM HEPES, pH 7.4, 1 mM DTT, 10% glycerol, 150 mM NaCl, 0.1 mM EDTA, 26 mM MgCl2, and 4 mM ATP). The enzyme was incubated at 4° C. for 1 hour.
Kinase activity assays were performed in 96-well polypropylene plates (Falcon) with a total volume of 90 μL in each well. Each well contained 1 μM KDR substrate (Biotin-[…]), 1 nM activated KDR, and a test compound with one of 8 assay concentrations ranging from […] to […] (1:5 serial dilution). […] The reaction was incubated at 37° C. for 30 minutes. To stop the KDR reaction, 72 μL of reaction mixture was transferred into a STOP plate containing 18 μL of revelation buffer (20 mM EDTA, 50 mM HEPES, pH 7.4, 0.02% BSA, 10 nM Eu-labelled anti-pY antibody (final conc. 2 nM), and 100 nM streptavidin (final conc. 20 nM)). After mixing, 35 μL of solution was transferred into duplicate wells of a 384-well black plate (Costar), and read at 615/665 nm on a Wallac Victor 5 reader.
Compound IC50 values were determined from duplicate sets of data, and calculated by using Excel and fitting data to equation Y=[(a−b)/{1+(X/c)^d]+b, where a and b are enzyme activity in the presence of no test inhibitor compound and an infinite amount of inhibitor test compound, respectively, c is the IC50 and d is the hill constant of the compound response. The IC50 value is the concentration of test compound that reduces by 50% the enzyme activity under the test conditions described.

[2] = tested on: H460a; assay: H460a cell-based MTT proliferation assay; settings: 120 h, 5 days post addition of test compound, read-out: Antiproliferative Activity H460a Assay IC90
Procedure: The H460a cell line was purchased from (ATCC; Rockville, Md.) and was grown in the medium recommended by ATCC. For analysis of the effect of the test compounds on growth of these cells, the cells were plated at 150 cells per well in a 96-well tissue culture plate, and were incubated overnight at 37° C. with 5% CO2. The next day, the test compounds were dissolved in 100% dimethyl sulfoxide (DMSO) to yield a 10 mM stock solution. Each compound was diluted with sterile medium to 1 mM in a sufficient quantity to yield a final concentration of 120 μM. The compounds were then serially diluted in medium with 1.2% DMSO. One-fourth final volume of the diluted compounds was transferred to 96 well plates. Test compounds were assayed in duplicate. […] The plates were returned to the incubator, and 5 days post addition of test compound, were analyzed as described below. […] Absorbencies were read in a microtiter plate reader (Molecular Dynamics) at a wavelength of 570 nm with a 650 nm reference. Percent inhibition was calculated by subtracting the absorbance of the blank (no cell) wells from all wells, then subtracting the division of the average absorbance of each test duplicate by the average of the controls from 1.00. Inhibitory concentrations (IC50) were determined from the linear regression of a plot of the logarithm of the concentration versus the percent inhibition.

T1 sequence (P35968 20-1356, species assumed): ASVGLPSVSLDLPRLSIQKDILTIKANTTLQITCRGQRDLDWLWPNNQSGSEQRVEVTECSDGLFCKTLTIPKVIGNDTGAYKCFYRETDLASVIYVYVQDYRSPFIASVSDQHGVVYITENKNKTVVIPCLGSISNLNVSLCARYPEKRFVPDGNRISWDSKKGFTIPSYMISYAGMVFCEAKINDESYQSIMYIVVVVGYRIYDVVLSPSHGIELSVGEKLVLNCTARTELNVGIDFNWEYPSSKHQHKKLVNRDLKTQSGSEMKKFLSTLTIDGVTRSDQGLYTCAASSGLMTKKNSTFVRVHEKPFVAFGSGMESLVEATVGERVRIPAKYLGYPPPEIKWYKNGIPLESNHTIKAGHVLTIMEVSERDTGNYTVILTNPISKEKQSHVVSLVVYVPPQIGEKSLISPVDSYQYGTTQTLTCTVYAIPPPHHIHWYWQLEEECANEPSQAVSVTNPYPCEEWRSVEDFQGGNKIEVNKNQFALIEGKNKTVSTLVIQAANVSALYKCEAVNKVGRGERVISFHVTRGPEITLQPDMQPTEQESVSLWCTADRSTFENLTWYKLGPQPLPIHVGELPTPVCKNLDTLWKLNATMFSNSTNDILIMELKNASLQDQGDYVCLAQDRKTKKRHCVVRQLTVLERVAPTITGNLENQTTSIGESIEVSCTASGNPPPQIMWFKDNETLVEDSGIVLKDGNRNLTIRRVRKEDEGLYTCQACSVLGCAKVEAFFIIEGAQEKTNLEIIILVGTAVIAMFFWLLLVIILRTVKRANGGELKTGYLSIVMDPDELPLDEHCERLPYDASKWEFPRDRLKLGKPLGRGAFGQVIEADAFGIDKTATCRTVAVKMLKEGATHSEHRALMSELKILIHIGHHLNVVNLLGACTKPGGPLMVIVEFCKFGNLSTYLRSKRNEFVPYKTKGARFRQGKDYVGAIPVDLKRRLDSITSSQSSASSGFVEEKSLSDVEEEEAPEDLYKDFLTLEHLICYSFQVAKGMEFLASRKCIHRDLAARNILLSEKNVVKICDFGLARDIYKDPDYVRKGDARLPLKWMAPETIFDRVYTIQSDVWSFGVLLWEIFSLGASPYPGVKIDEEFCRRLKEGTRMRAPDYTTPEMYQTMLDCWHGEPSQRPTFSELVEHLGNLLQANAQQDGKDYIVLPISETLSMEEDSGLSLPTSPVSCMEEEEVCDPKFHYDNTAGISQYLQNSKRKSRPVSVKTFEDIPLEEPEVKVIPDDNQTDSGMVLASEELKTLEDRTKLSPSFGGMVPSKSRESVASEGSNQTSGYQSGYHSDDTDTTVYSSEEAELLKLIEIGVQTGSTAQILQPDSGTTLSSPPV

COc1cc2c(cc1F)C(c1ccccc1Cl)=Nc1c(n[nH]c1C)N2 [IVa, 5-(2-chlorophenyl)-1,2-dihydro-7-fluoro-8-methoxy-3-methyl-pyrazolo[3,4-b][1,4]benzodiazepine]
pIC50 [1]: 8.00 | IC90 [2]: 1570 nM
